Test results from article PMC8355244, “A fragment-based approach identifies an allosteric pocket that impacts malate dehydrogenase activity” (Communications Biology, 2021).
Several values for one entry are separate records, joined by “and”; a condition that tells them apart may be missing. Identical values can stand only once. Like-named read-outs stand apart in the source and are kept apart here.

Tests used:
[1] = tested on: HsMDH2; conditions: Supplementary Table 1, cited from earlier work
[2] = target: T1, PfMDH (Plasmodium falciparum, UniProt Q6VVP7); conditions: Supplementary Table 2; ref 10.1021/jm070336k; cited from earlier work
T1 construct: The full-length WT PfMDH gene was cloned into pETM-13; made in house; host or cells: E. coli Rosetta 2 (DE3) pLysS

[3] = tested on: HsMDH1; design: method as in earlier work; conditions: Supplementary Table 1; ref 10.1021/acs.jmedchem.7b01231; cited from earlier work
[4] = tested on: MDH; conditions: cited from earlier work
[5] = target: T1, PfMDH; experiment: Small-angle X-ray scattering (SAXS) of PfMDH with compounds; conditions: 1 mM compound; for radius of gyration Rg of PfMDH in complex: apo PfMDH 33.78 ± 5.51
Description: X-ray scattering experiments were performed using the laboratory SAXS system Xeuss 2.0 (XENOCS, Grenoble, France) equipped with a MetalJet D2 microfocus X-ray generator (0.134 nm wavelength). The protein solution at a concentration of 2.49 mg ml^−1 was mixed with 4PA derivatives at a concentration of 1 mM, incubated for 1 h at room temperature, and spun at 16,000 rpm (Eppendorf Centrifuge 5415R) to remove any potential aggregates prior to injection into the low-noise liquid sample cell. SAXS data were collected in 3–4 subsequent 10 min long frames using a Pilatus3R 1 M hybrid photon counting detector (Dectris, Switzerland). Data reduction and buffer subtraction procedures were performed using the Foxtrot package. Scattering profiles were assessed for radiation-damaged and averaged. Structural parameters were calculated in Primus from the ATSAS package. The distance distribution function was calculated using GNOM[58].

[6] = target: T1, PfMDH; experiment: Dynamic light scattering (DLS), aggregation; conditions: PfMDH samples incubated with compound
Description: Measurements were performed on Litesizer 500 (Anton Paar). Samples were incubated with the highest concentrations of compounds for 2 h at room temperature. Prior to measurements, samples were spun for 5 min at 16,000 rpm (Eppendorf Centrifuge 5415R) to remove aggregates.

[7] = Precipitation / turbidity of compound in assay buffer (600 nm); format: physicochemical; conditions: activity screening buffer, 500 µM
Description: 1.3 µL of derivatives of 4-phenylthiazol-2-amine in 100% DMSO were mixed with 237.7 µL of a mastermix of WT PfMDH previously incubated with NAD+. The final compound concentration used in this screening was 500 µM in the presence of 0.5% (v/v) DMSO. The microplate was sealed with silver foil for 1-h incubation at 25–35 °C. Finally, reactions in both the samples and control wells were started upon the addition of 13.0 µL of 5 mM malate). At the end of the experiments, the reaction of the plate was spectrophotometrically assayed at 600 nm in order to identify turbidity due to the low solubility of the compound. All measurements were performed in duplicate.

[8] = ref 10.1021/acs.jmedchem.7b01231

T1 sequence (Q6VVP7 entry or part of it): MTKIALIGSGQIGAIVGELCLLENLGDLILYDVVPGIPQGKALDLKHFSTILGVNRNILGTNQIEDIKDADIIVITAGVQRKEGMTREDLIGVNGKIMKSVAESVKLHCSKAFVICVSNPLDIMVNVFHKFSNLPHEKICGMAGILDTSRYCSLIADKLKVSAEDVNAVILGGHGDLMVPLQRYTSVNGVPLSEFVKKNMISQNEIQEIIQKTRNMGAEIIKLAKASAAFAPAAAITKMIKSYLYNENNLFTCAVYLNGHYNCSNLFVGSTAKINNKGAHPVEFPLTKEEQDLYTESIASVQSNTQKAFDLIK

COC(=O)c1ccc(O)c(NC(=O)CCCOc2ccc(C(C)(C)CC(C)(C)C)cc2)c1 [Inhibitor 14c]
IC50 [1, 8]: 1.11 ± 0.01 µM

COc1cc(CCOc2cc(O)c3c(=O)cc(C(=O)O)oc3c2)ccc1NC(=O)C(=O)O [Inhibitor 4]
IC50 [2]: > 225 µM

O=C(O)C(=O)Nc1ccc(CCOc2cc(O)c3c(=O)cc(C(=O)O)oc3c2)cc1 [Inhibitor 2]
IC50 [2]: > 241 µM

COc1ccc(CNC(=O)c2cc(=O)c3c(O)cc(OCCc4ccc(NC(=O)C(=O)O)c(OC)c4)cc3o2)cc1 [Inhibitor 7]
IC50 [2]: 2.66 ± 0.24 µM

COC(=O)c1cccc(NC(=O)CCOc2ccc(C(C)(C)CC(C)(C)C)cc2)c1 [Inhibitor 16c]
IC50 [3]: 1.07 ± 0.07 µM
IC50 [1, 8]: 1.06 ± 0.03 µM

O=c1c(O)c(-c2ccc(O)c(O)c2)oc2cc(O)cc(O)c12 [quercetin]
IC50 [4]: 6 µM

Nc1nc(-c2ccc([N+](=O)[O-])cc2)cs1 [compound 2a]
radius of gyration Rg of PfMDH in complex [5]: 33.78 ± 0.83 Å and 33.8 Å
aggregation in DLS [6]: no aggregation in DLS
precipitation of compound in the buffer [7]: precipitation of compound was observed

Nc1nc(-c2ccc(Br)cc2)cs1 [compound 6a]
Rg from Dmax analysis ([5]; apo 33.93 ± 4): 34.52 ± 4.3 Å
Dmax ([5]; apo 104.75): 113.74 Å
MW estimate of PfMDH complex ([5]; apo 113.65): 91.175 kDa
radius of gyration Rg of PfMDH in complex [5]: 36.4 ± 3.15 Å and 36.4 Å
aggregation in DLS [6]: no aggregation in DLS
precipitation of compound in the buffer [7]: precipitation of compound was observed

CC(=O)c1c(O)c(C)c(O)c(Cc2c(O)c3c(c(C(=O)/C=C/c4ccccc4)c2O)OC(C)(C)C=C3)c1O [rottlerin]
IC50 [4]: 0.7 µM

NC(=O)C(=O)O [Oxamate]
IC50 [2]: > 2000 µM

COC(=O)c1cccc(NC(=O)CCCOc2ccc(C(C)(C)CC(C)(C)C)cc2)c1 [Inhibitor 14b]
IC50 [3]: 1.18 ± 0.08 µM
IC50 [1, 8]: 1.11 ± 0.01 µM

O=C1Cc2c([nH]c3ccc(Br)cc23)-c2ccccc2N1Cc1ccc(Cl)c(Cl)c1 [Inhibitor 4h]
IC50 ([1]; ref 10.1016/j.ejmech.2009.10.018): 1.1 ± 0.1 µM
